Assay results as given in patent US20260232699A1, “COMPOSITIONS OF A CANNABINOID AND A KINASE INHIBITOR FOR THE TREATMENT OF CANCER” (SINOVEDA CANADA INC., priority 2023, published 2026).
Converted amounts (≈) assume the structure as drawn.

Legend:
[1] = sorafenib, cited from earlier work
[2] = Clinical study, patients; cited from earlier work
[3] = system: HepG2 cells; experiment: rtPCR gene expression analysis (TaqMan array card); type: cell-based, human; conditions: 6 h at IC50 concentration, relative to negative control
Method: Target cancer gene pathways were analyzed using a custom Taqman® array card exploring 90 unique genes associated with cancer related pathways (Kanehisa, Goto et al. 2010).
Two million HepG2 cells in IMDM media with 20% FBS, and 1% ethanol were seeded in T75 flasks and incubated at 37° C., 7.5% CO2 until 70-80% confluent (approx. […]). […] Untreated cells were included as a negative control. Glyceraldehyde-3-phosphate dehydrogenase (GAPDH) was included as an endogenous control and used for normalization of the data.
Following a 6-hour incubation with the test compounds, the RNA was extracted using Invitrogen's Dynabead mRNA DIRECT kit using the recommended protocol to provide 50 μL of a purified mRNA solution. Fifty μL of RT master mix was mixed into the mRNA solution and the mixture left to react at 37° C. for 60 minutes. Reverse transcriptase inactivation was performed at 95° C. for 5 minutes and the resulting cDNA samples were kept at 4° C. until use. Fifty-five microliters of TaqMan Fast Advance master mix were added to an equal amount of cDNA sample containing 1 μg/100 μl of cDNA, which was loaded into each card reservoir. The cards were centrifuged twice at 1200 RPM for 3 minutes in a Legend XFR centrifuge and the rtPCR reaction was conducted in a QuantStudio7 PCR instrument using the recommended settings with 40 amplification cycles. Data processing was done using ThermoFisher's Connect™ application.

[4] = system: pool of normal hepatocytes (HC3_23); experiment: Normal hepatocyte toxicity, Calcein-AM; type: cell-based; conditions: Homo sapiens, 48-hour incubation, William's E media
Method: To evaluate the safety margin of the compounds prior to clinical trials, the toxicity of the compounds toward a pool of normal hepatocytes was investigated in-house using a hepatocyte pool obtained from Xenotech (HC3_23). Cells were thawed and plated in 96 well, black walled, gamma-irradiated plates (100 μl) after reconstitution in William's E media with Gibco hepatocellular maintenance supplement. Following an 18-hour recovery period, the media was exchanged with the same media containing 9 serial dilutions of the test compound mixtures (8 to 2000 μg/ml). Experiments were performed in triplicate. Following a 48-hour incubation period, Calcein-AM was added to provide a final concentration of 7 ng/ml to each well and allowed to react for 60 minutes before readings were acquired (excitation 494 nm, emission 517 nm). Data were fit to sigmoidal curves using four-point logistic curve fitting software and the 50% inflection points used for IC50 values.

[5] = system: HCC PDX models 575, 658, and LI-011; experiment: Clonogenic assay on patient-derived xenograft tumor cells; type: cell-based; conditions: Homo sapiens, 336 h; 575, 658, LI-011; 14 days continuous exposure; P=0.023; read-out: IC50 values, all PDX models examined
Method: Tumor xenografts (patient-derived: 575, […], and LI-011; as well as cell line-derived: HepG2) were passaged as subcutaneous xenografts in NMRI nu/nu mice. Once tumor volumes reached 600-1000 mm^3, tumors were harvested according to FELASA and GV-SOLAS animal welfare guidelines. Tumors were mechanically disaggregated and subsequently incubated with collagenase type IV (41 U/mL), DNase I (125 U/mL), hyaluronidase type III (100 U/mL), and dispase II (1 U/mL) in RPMI 1640 medium at 37° C. for 60-120 minutes. Cells were filtered through 100 μm and 40 μm mesh size sieves and washed with the same media devoid of enzymes and stored in liquid nitrogen vapor phase.
The clonogenic assay was carried out in 96 well, ultra-low attachment plates. Frozen aliquots of tumor cells were prepared from HepG2 HCC cells and the three tumor xenografts described above. Cells were thawed in Iscove's Modified Dulbecco's Medium (IMDM), supplemented with 20% (v/v) fetal calf serum, 50 μg/ml gentamicin, 1% ethanol, and 0.4% (w/v) agar prior to use. Test wells were first layered with 100 μl of the same soft-agar medium followed by 50 μl of media with tumor cells. Following solidification, the soft-agar layer was covered with 90 μl of the same culture medium without agar. After 24 hours, 10 μl of test compounds or control medium were added and left for 14 days (continuous exposure, 100 μl drug overlay). […]

## CNC(=O)c1cc(Oc2ccc(NC(=O)Nc3ccc(Cl)c(C(F)(F)F)c3)cc2)ccn1 [Sorafenib]
[1]; fasted simulated intestinal fluid, value marked [1]
  Solubility, μg/ml FaSSIF: 3.3 [1] μg/ml
[1]; value marked [1]
  F (oral bioavailability): 0.38-0.49[1]
[1]; value marked [3]
  ClH (Hepatic clearance): ~0.051-0.066[3] L/min
  ClTB (Total body clearance): 0.051-0.066[3] L/min
  Vd, ss (Volume of distribution at steady state): 1.01-1.3[3] L/kg
  t½ (Half-life): 14.09-18.23[3] hours
[2]
  Tmax: 2 to 9.5 h
  Total body clearance: 1.83 mL/min/kg
  Volume of distribution: 2.66 L/kg
[3]; Angiogenesis
  ΔΔCt VEGFA: −2.101
[3]; Ca Signaling
  ΔΔCt CAMK1: −1.249
[3]; Cell Cycle
  ΔΔCt BAD: −1.712
  ΔΔCt BAX: −1.835
  ΔΔCt BCL2L1: −1.67
  ΔΔCt BECN1: −1.627
  ΔΔCt CCND2: −2.012
  ΔΔCt CDK2: −1.072
  ΔΔCt CDK4: −1.315
  ΔΔCt CDK6: −1.273
  ΔΔCt MAX: −1.278
  ΔΔCt MNT: −1.155
[3]; Cellular Adhesion
  ΔΔCt CTNNB1: −1.355
[3]; Drug Resistance
  ΔΔCt MITF: −2.782
[3]; HIPPO
  ΔΔCt TEAD2: −1.447
[3]; Hedge Hog signaling
  ΔΔCt SMO: −1.125
[3]; JAK-STAT
  ΔΔCt STAT1: −1.284
[3]; MAP kinase
  ΔΔCt ERBB2: 2.729
  ΔΔCt MAP1LC3A: −1.658
  ΔΔCt MAP2K2: −1.241
  ΔΔCt MAP3K1: −2.162
  ΔΔCt MAPK8: −1.245
  ΔΔCt RASA1: −2.013
[3]; PI3K pathway
  ΔΔCt CRK: −3.778
  ΔΔCt PIK3C2A: −2.308
  ΔΔCt PIK3CA: −1.501
  ΔΔCt PTEN: −1.165
[3]; TGF signaling
  ΔΔCt SMAD2: −1.348
[3]; Wnt signaling
  ΔΔCt GSK3B: −1.105
  ΔΔCt ROCK1: −1.495
[4]
  IC50: 70.1 µg/mL (≈ 151 µM)
[5]
  IC50: 14.3 µM
